Laboratory results: patent US6599713B1, “Method for quantitating leukocyte count in whole blood sample” (priority 1999, dated 2003)

Columns and labels:
[1] = tested on: white blood cells contained in a whole blood sample; assay: MPO-releasing effects of various surfactants on whole blood, ELISA (Examples 3 to 5); format: cell-based, human; conditions: 60 minutes on ice
Method: 10 ml of healthy human whole blood was collected using a 28 G winged intravenous injection needle (manufactured and sold by Terumo Corporation, Japan), and immediately mixed with 10 mg of EDTA-2K (manufactured and sold by Dojin Laboratories, Japan), and the resultant EDTA-containing whole blood sample was subjected to the below-described various measurements within 1 hour from the blood collection.
500 μl of the blood was put in a 2-ml Eppendorf tube, and 500 μl of a 1% (w/v) aqueous surfactant solution was added to the tube, and the resultant mixture was stirred for 2 seconds by a Vortex mixer. Subsequently, the mixture was allowed to stand for 60 minutes on ice to thereby lyze the white blood cells. After the lysis of the white blood cells, 100 μl of the mixture was taken out and added to 900 μl of a PBS solution containing dissolved therein 1% BSA (trade name: “Sigma fraction V”, manufactured and sold under the brand of SIGMA™, U.S.A.). The resultant mixture was stirred by a Vortex mixer, and then 10 μl of the mixture was taken out and diluted 2,000-fold with 1% BSA/PBS solution. The resultant diluted mixture was subjected to a measurement by ELISA.
The outline of the ELISA is as follows. A 5 μg/ml PBS solution of an anti-MPO antibody was put into the wells of a Nunc Immuno Plate (manufactured and sold by Nalge Nunc International, Denmark) in an amount of 100 μl per well. The solution in each well was sealed and subjected to a reaction for 18 hours at 4° C. thereby immobilizing the primary antibody. The wells were washed with a washing solution (0.05% Tween™ 20/PBS) and then subjected to blocking for 1 hour at room temperature by using 200 μl of a blocking solution (1% BSA/PBS), and then washed twice with the washing solution. […] The wells were washed 5 times with a washing solution, and 100 μl of a just-prepared TMB solution (manufactured and sold by Kirkegaad & Perry Laboratories, U.S.A.) was added thereto to effect a color reaction. 2 Minutes after the start of the color reaction, 100 μl of a 1 N sulfuric acid solution (manufactured and sold by Nacalai Tesque, Inc., Japan) was added to the wells to thereby terminate the reaction. Then, the absorbance at 450 nm was measured by means of a plate reader (manufactured and sold by Bio-Rad Laboratories, U.S.A.).
With respect to the measurement of the MPO concentration of the sample, MPO (manufactured and sold by Elastin Products Co., INC., U.S.A.) was added to the sample so that the final concentration of the added MPO became 5 ng/ml or 10 ng/ml, and the resultant mixture was measured with respect to the MPO concentration. From the obtained value of MPO concentration, a calibration curve for each sample was obtained. The obtained calibration curve was corrected, based on its relationship with a calibration curve obtained with respect to a standard MPO solution, and the corrected calibration curve of each sample was used to determine the MPO concentration of the whole blood. The measurement was conducted 3 times, and a mean value±standard deviation was obtained.

[2] = tested on: white blood cells contained in the whole blood; assay: Concentration of surfactant and release amount of MPO in whole blood, ELISA (Example 2); format: cell-based, human; conditions: 60 minutes on ice, mean ± SD of 3
Method: 10 ml of healthy human whole blood was collected and immediately mixed with 10 mg of EDTA-2K (manufactured and sold by Dojin Laboratories, Japan), and the resultant EDTA-containing whole blood sample was subjected to the below-described various measurements within 1 hour from the blood collection.
500 μl of the blood was put in a 2-ml Eppendorf tube, and 500 μl of an aqueous surfactant solution having a surfactant concentration of 0.1, 0.2, 0.4, 0.6, 1, 2, 4, 10 or 20% (w/v) was added to the tube, and the resultant mixture was stirred for 2 seconds by a Vortex mixer. Subsequently, the mixture was allowed to stand for 60 minutes on ice to thereby lyze the white blood cells. […] After the lysis of the white blood cells, 100 μl of the mixture was taken out and added to 900 μl of a PBS solution containing dissolved therein 1% BSA (trade name: “Sigma fraction V”, manufactured and sold under the brand of SIGMA™, U.S.A.). The resultant mixture was stirred by a Vortex mixer, and then 10 μl of the mixture was taken out and diluted 2,000-fold with 1% BSA/PBS solution. The resultant diluted mixture was subjected to a measurement by ELISA.
The outline of the ELISA is as follows. A 5 μg/ml PBS solution of a rabbit anti-human myeloperoxidase antibody (manufactured and sold by Calbiochem-Novabiochem Corporation, U.S.A.)(hereinafter, frequently referred to as “anti-MPO antibody”) was put into the wells of a Nunc Immuno Plate (manufactured and sold by Nalge Nunc International, Denmark) in an amount of 100 μl per well. The solution in each well was sealed and subjected to a reaction for 18 hours at 4° C. thereby immobilizing the primary antibody. The wells were washed with a washing solution (0.05% Tween™ 20/PBS) and then subjected to blocking for 1 hour at room temperature by using 200 μl of a blocking solution (1% BSA/PBS), and then washed twice with the washing solution. Then, the above-obtained diluted mixture (blood sample which had been treated with a surfactant and then diluted) was put in the wells in an amount of 100 μl per well, and subjected to a reaction for 2 hours at room temperature. Then, the wells were washed 3 times with the washing solution, and a 5 μg/ml solution of an anti-MPO antibody labeled with horseradish peroxidase (hereinafter referred to as “HRP”) was put in the wells in an amount of 100 μl per well, and subjected to a reaction for 1 hour at room temperature. As the above-mentioned HRP-labeled anti-MPO antibody, an anti-human MPO antibody (manufactured and sold by Calbiochem-Novabiochem Corporation, U.S.A.) which had been labeled with HRP Grade IV (manufactured and sold under the brand of SIGMA™, U.S.A.) was employed. The labeling was performed by the method described in Analytical Biochemistry, 132, 68-73 (1983). The wells were washed 5 times with the washing solution, and 100 1 μl of a just-prepared TMB solution (manufactured and sold by Kirkegaad & Perry Laboratories, U.S.A.) was added thereto to effect a color reaction. 2 Minutes after the start of the color reaction, 100 μl of a 1 N sulfuric acid solution (manufactured and sold by Nacalai Tesque, Inc., Japan) was added to the wells to thereby terminate the reaction. Then, the absorbance at 450 nm was measured by means of a plate reader (manufactured and sold by Bio-Rad Laboratories, U.S.A.). The measurement was conducted 3 times, and a mean value±standard deviation was obtained.

[3] = tested on: white blood cells in whole blood; conditions: nonionic surfactants, dependence on HLB value
Method: Blood collection, treatment with a surfactant, and ELISA were performed in the same manner as in Example 3 in order to measure the MPO-releasing effects of the below-mentioned various surfactants.
These surfactants were individually dissolved in purified water (manufactured and sold by Kyoei Seiyaku Co., Japan) so as to obtain 10% or 2% (w/v) aqueous solutions. Before use in the testing, each of the aqueous solutions was further diluted to obtain a 1% (w/v) aqueous solution, and the 1% (w/v) aqueous solution was used in the testing within 15 hours from the preparation thereof. As a control, purified water (manufactured and sold by Kyoei Seiyaku Co., Japan) was used.

[4] = Example 5 (Table 5): 500 μl blood + 500 μl 1% (w/v) surfactant solution, mean ± SD
[5] = Example 3 (Table 3): 500 μl blood + 500 μl 1% (w/v) surfactant solution, mean ± SD of 3
[6] = Example 4 (Table 4): 500 μl blood + 500 μl 1% (w/v) surfactant solution, mean ± SD
[7] = concentration of surfactant 0.05 % (w/v)
[8] = concentration of surfactant 0.10 % (w/v)
[9] = concentration of surfactant 0.20 % (w/v)
[10] = concentration of surfactant 0.30 % (w/v)
[11] = concentration of surfactant 0.50 % (w/v)
[12] = concentration of surfactant 1.00 % (w/v)
[13] = concentration of surfactant 2.00 % (w/v)
[14] = concentration of surfactant 5.00 % (w/v)
[15] = concentration of surfactant 10.00 % (w/v)

Compound: CCCCCCCCCCCC[N+](C)(C)C.[Br-] [DTAB, n-Dodecyltrimethylammonium Bromide]
- MPO concentration of whole blood [1, 4]: 8.05 ± 0.64 µg/mL

Compound: CCCCCCCCCCCCCCCC[N+](C)(C)C.[Br-] [HTAB, Hexadecyltrimethylammonium Bromide]
- MPO concentration of whole blood [1, 5]: 5.80 ± 1.41 µg/mL
- MPO concentration of whole blood [1, 6]: 9.58 ± 0.53 µg/mL
- MPO concentration of whole blood [1, 4]: 7.15 ± 2.69 µg/mL

Compound: CCCCCCCCCCCCCCCC[N+](C)(C)C.[Cl-] [HTAC, Hexadecyltrimethylammonium Chloride]
- MPO concentration of whole blood [1, 6]: 10.93 ± 0.82 µg/mL
- MPO concentration of whole blood [1, 4]: 7.35 ± 0.28 µg/mL

Compound: CCCCCCCCCCCC[n+]1ccccc1.[Cl-] [LPC, 1-Laurylpyridinium Chloride]
- MPO concentration of whole blood [1, 6]: 9.58 ± 1.39 µg/mL
- MPO concentration of whole blood [1, 4]: 7.57 ± 0.60 µg/mL

Compound: CCCCCCCCCCCCCCCCCC[N+](C)(C)C.[Cl-] [OTAC, Octadecyltrimethylammonium Chloride]
- MPO concentration of whole blood [1, 4]: 7.47 ± 0.38 µg/mL

Compound: CCCCCCCCCCCCCC[N+](C)(C)C.[Br-] [TTAB, Tetradecyltrimethylammonium Bromide]
- MPO concentration of whole blood [1, 6]: 9.33 ± 1.30 µg/mL
- MPO concentration of whole blood [1, 4]: 8.08 ± 0.11 µg/mL

Compound: α-(4-Nonylphenyl)-ω-hydroxypoly(oxy-1,2-ethanediyl) [Nissan Nonion NS-208.5]
- MPO concentration of whole blood [1, 5]: 6.20 ± 1.51 µg/mL

Compound: α-[4-(1,1,3,3,-Tetramethylbutyl)phenyl]-ω-hydroxypoly(oxy-1,2-ethanediyl) [Igepal ™ CA630]
- MPO concentration of whole blood [1, 5]: 6.23 ± 1.42 µg/mL
- Release amount of MPO in whole blood [2, 7]: 0.103 ± 0.005 Abs. 450 nm
- Release amount of MPO in whole blood [2, 8]: 0.156 ± 0.009 Abs. 450 nm
- Release amount of MPO in whole blood [2, 9]: 0.205 ± 0.007 Abs. 450 nm
- Release amount of MPO in whole blood [2, 10]: 0.211 ± 0.008 Abs. 450 nm
- Release amount of MPO in whole blood [2, 11]: 0.249 ± 0.002 Abs. 450 nm
- Release amount of MPO in whole blood [2, 12]: 0.220 ± 0.008 Abs. 450 nm
- Release amount of MPO in whole blood [2, 13]: 0.208 ± 0.003 Abs. 450 nm
- Release amount of MPO in whole blood [2, 14]: 0.199 ± 0.018 Abs. 450 nm
- Release amount of MPO in whole blood [2, 15]: 0.227 ± 0.006 Abs. 450 nm

Compound: α-[4-(1,1,3,3,-Tetramethylbutyl)phenyl]-ω-hydroxypoly(oxy-1,2-ethanediyl) [Triton ™ X-114]
- Efficiency for releasing intrinsic MPO from the white blood cells (in words) [3]: high activity to release intrinsic MPO
- MPO concentration of whole blood [1, 5]: 7.44 ± 1.81 µg/mL
- Release amount of MPO in whole blood [2, 7]: 0.120 ± 0.026 Abs. 450 nm
- Release amount of MPO in whole blood [2, 8]: 0.131 ± 0.016 Abs. 450 nm
- Release amount of MPO in whole blood [2, 9]: 0.207 ± 0.004 Abs. 450 nm
- Release amount of MPO in whole blood [2, 10]: 0.198 ± 0.003 Abs. 450 nm
- Release amount of MPO in whole blood [2, 11]: 0.259 ± 0.007 Abs. 450 nm
- Release amount of MPO in whole blood [2, 12]: 0.240 ± 0.006 Abs. 450 nm
- Release amount of MPO in whole blood [2, 13]: 0.245 ± 0.015 Abs. 450 nm
- Release amount of MPO in whole blood [2, 14]: 0.239 ± 0.002 Abs. 450 nm
- Release amount of MPO in whole blood [2, 15]: 0.243 ± 0.005 Abs. 450 nm
